Laboratory results taken from PubChem BioAssay (NCI).
“And” between values parts separate entries of the source, which are not always exact repeats. Identical values can stand only once.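 Compound exposure: 48 hours, 5 concentrations, 96-well plates. Here, GI50 denotes the concentration required for 50% inhibition of growth. At the TGI there is no net growth.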

How the values were obtained:
Experiment in all cases: growth of human tumour cells (NCI), 48 h
[1] = tested on: 786-0 renal
[2] = tested on: CAKI-1 renal
[3] = tested on: HCT-15 colon
[4] = tested on: K-562 leukemia
[5] = tested on: KM12 colon
[6] = tested on: LOX IMVI melanoma
[7] = tested on: MOLT-4 leukemia
[8] = tested on: PC-3 prostate
[9] = tested on: SF-268 CNS
[10] = tested on: SK-OV-3 ovarian

SMILES | TGI [1] | TGI [2] | TGI [3] | TGI [4] | TGI [5] | TGI [6] | TGI [7] | TGI [8] | TGI [9] | TGI [10] | GI50 [1] | GI50 [2] | GI50 [3] | GI50 [4] | GI50 [5] | GI50 [6] | GI50 [7] | GI50 [8] | GI50 [9] | GI50 [10]
O=C(c1c(F)c(F)c(F)c(F)c1F)c1c(F)c(F)c(F)c(F)c1F | 1.64 µM | 1.69 µM | 3.83 µM | > 100 µM | 2.04 µM | 2.19 µM | 0.764 µM | 3.39 µM | 7.8 µM | 5.57 µM | – | – | – | – | – | – | – | – | – | –
COc1cnc2c(c1)C(=O)c1c-2n(CCCN2CCCC2)c(=O)c2cc([N+](=O)[O-])ccc12 | 0.152 µM | 1.46 µM | 4.05 µM | 1.9 µM | 1.77 µM | 0.112 µM | 0.0451 µM | 13.9 µM | 12.8 µM | 0.843 µM | 0.0266 µM | < 0.01 µM | 0.0616 µM | 0.0226 µM | 0.139 µM | < 0.01 µM | < 0.01 µM | 0.0662 µM | 0.0191 µM | 0.0336 µM
CCN1CCN(CCNc2nccc(-c3c(-c4ccc(F)c(O)c4)nc4occn34)n2)S1(=O)=O | > 100 µM | > 100 µM | > 100 µM | > 100 µM | > 100 µM | > 100 µM | > 100 µM | > 100 µM | > 100 µM | > 100 µM | 9.44 µM | 4.3 µM | 3.93 µM | 3.67 µM | 3.72 µM | 3.76 µM | 2.56 µM | 2.12 µM | 4.84 µM | 12.9 µM
COc1cc(-n2ccnc2-c2ccc3ccccc3c2)cc(OC)c1OC | 19 µM | > 75.3 µM | > 48.6 µM | > 100 µM | 18.9 µM | > 47.6 µM | > 50.9 µM | > 85.8 µM | 49.8 µM | 24.7 µM | 0.161 µM | 0.0853 µM | 0.0509 µM | < 0.0191 µM | < 0.0198 µM | 1.08 µM | 0.284 µM | 0.03 µM | 0.182 µM | 0.13 µM
COC[C@H](NC(=O)c1cnc(C)s1)C(=O)N[C@@H](COC)C(=O)N[C@@H](Cc1ccccc1)C(=O)[C@@]1(C)CO1 | > 100 µM | > 100 µM | > 100 µM | > 100 µM | 56 µM | 38.4 µM | > 100 µM | > 100 µM | > 100 µM | > 100 µM | 50.1 µM | 38.5 µM | 31.2 µM | 37.8 µM | 21.4 µM | 17.8 µM | 23.8 µM | 50.1 µM | 48.4 µM | > 94.9 µM
CC(=O)O.CN1[CH-]N(Cc2ccc(C#N)cc2)c2ccccc21.[Ag+] | 36.7 µM | 33.9 µM | 38 µM | 46 µM | > 100 µM | 36.2 µM | 68.2 µM | 28.5 µM | > 100 µM | 63.5 µM | 18.4 µM | 18.2 µM | 18 µM | 18 µM | > 100 µM | 15.6 µM | 26.1 µM | 13.5 µM | 72 µM | 24.4 µM
COc1ccc(Nc2nc(NCCNc3ccnc4cc(Cl)ccc34)nc(N3CCOCC3)n2)cc1 | 12.3 µM | 17.5 µM | 10.9 µM | 7.82 µM | 18 µM | 10.6 µM | 11.2 µM | 19.8 µM | 19.5 µM | 24.6 µM | 2.11 µM | 4.17 µM | 2.63 µM | 2.09 µM | 5.18 µM | 3.01 µM | 2.01 µM | 3.94 µM | 5.02 µM | 11.7 µM
NCCCCC(NC(=O)C(N)CCCN=C(N)N)C(=O)NC(CCCCN)C(=O)NC(CCCN=C(N)N)C(=O)NC(CCCN=C(N)N)C(=O)NC(CCC(N)=O)C(=O)NC(CCCN=C(N)N)C(=O)NC(CCCN=C(N)N)C(=O)NC(CCCN=C(N)N)C(=O)NCC(=O)NCC(=O)O (stereo not given) | > 50 µM | > 50 µM | > 50 µM | > 50 µM | > 50 µM | > 50 µM | > 50 µM | > 50 µM | > 50 µM | > 50 µM | > 50 µM | > 50 µM | > 50 µM | > 50 µM | > 50 µM | > 50 µM | > 50 µM | > 50 µM | > 50 µM | > 50 µM
OC1CC2CCC(C1)N2CCCN1c2ccccc2Sc2ccc(Cl)cc21 (stereo not given) | 3.54 µM | 9.47 µM | 6.65 µM | 4.61 µM | 4.08 µM | 3.33 µM | 5.8 µM | 4.8 µM | 6.23 µM | 11.6 µM | – | – | – | – | – | – | – | – | – | –
CCOC(=O)c1ccc(-n2cnc(-c3ccc([N+](=O)[O-])cc3)c2)cc1 | > 100 µM | > 100 µM | > 100 µM | > 100 µM | > 100 µM | > 100 µM | > 100 µM | > 100 µM | > 100 µM | > 100 µM | – | – | – | – | – | – | – | – | – | –
COc1cc2nc(N3CCCN(C)CC3)nc(NC3CCN(Cc4ccccc4)CC3)c2cc1OC | 5.2 µM | 3.71 µM | 4.41 µM | 4.56 µM | 9.82 µM | 3.28 µM | 6.25 µM | 20.1 µM | 8.65 µM | 10.8 µM | 1.84 µM | 1.63 µM | 1.83 µM | 1.47 µM | 3.07 µM | 1.68 µM | 1.8 µM | 4.4 µM | 2.72 µM | 3.19 µM
CCOC(=O)c1[nH]c2cc(Cl)ccc2c1[C@@H](C(=O)NC(C)(C)C)N(CC)C(=O)CCCCC#Cc1cccc2c1CN(C1CCC(=O)NC1=O)C2=O (stereo not given in full) | 8.63 µM | 8.62 µM | > 33.2 µM | > 100 µM | > 100 µM | > 86.5 µM | 0.0152 µM | 9.36 µM | 28.7 µM | 16.9 µM | 0.249 µM | 0.0355 µM | 0.048 µM | 1.52 µM | 0.901 µM | 3.18 µM | < 0.01 µM | < 0.01 µM | 0.0476 µM | 0.694 µM
COc1cc(CCC[P+](c2ccccc2)(c2ccccc2)c2ccccc2)c(OC)c2c1OCO2 | 16.5 µM | 7.18 µM | > 100 µM | > 100 µM | 6.59 µM | 12.1 µM | 18.9 µM | > 100 µM | 13.1 µM | 6.41 µM | 3.44 µM | 2.42 µM | 13.4 µM | 0.659 µM | 0.828 µM | 2.48 µM | 3.33 µM | 1.55 µM | 2.13 µM | 2.02 µM
COc1ccc(-c2ncnc3c2ncn3CC#CCCl)cc1 | 3.93 µM | 3.11 µM | 17.7 µM | > 100 µM | 17.5 µM | 3.52 µM | > 100 µM | 24.7 µM | 4.13 µM | 22.7 µM | 1.86 µM | 1.47 µM | 4.07 µM | 8.06 µM | 4.85 µM | 1.77 µM | 2.68 µM | 6.82 µM | 1.66 µM | 10.5 µM
O=C(O)Cc1cccc2c(=O)cc(-c3ccccc3)oc12 | > 1000 µM | > 72 µM and 194 µM and 420 µM | 250 µM and > 1000 µM | 250 µM and > 844 µM | 250 µM and > 889 µM | 250 µM and > 909 µM | > 824 µM | > 1000 µM | > 1000 µM | 250 µM and > 1000 µM | > 250 µM | > 46.8 µM and 163 µM | 343 µM | 148 µM | 334 µM | 280 µM | 288 µM | > 955 µM | 814 µM | > 813 µM
